The values below come from ChEMBL document CHEMBL5126623, “Dual Targeting of Steroid Sulfatase and 17β-Hydroxysteroid Dehydrogenase Type 1 by a Novel Drug-Prodrug Approach: A Potential Therapeutic Option for the Treatment of Endometriosis” (J Med Chem, 2022).

The species entered for one series is Homo sapiens. The experiment in a line: Selectivity ratio of IC50 for human placental microsomal fraction 17beta-HSD2 to IC50 for human placental cytosolic fraction 17beta-HSD1.
For series [1], the target named is T1, 17-beta-hydroxysteroid dehydrogenase type 1 (Homo sapiens) (UniProt P14061).
T1 sequence (whole entry): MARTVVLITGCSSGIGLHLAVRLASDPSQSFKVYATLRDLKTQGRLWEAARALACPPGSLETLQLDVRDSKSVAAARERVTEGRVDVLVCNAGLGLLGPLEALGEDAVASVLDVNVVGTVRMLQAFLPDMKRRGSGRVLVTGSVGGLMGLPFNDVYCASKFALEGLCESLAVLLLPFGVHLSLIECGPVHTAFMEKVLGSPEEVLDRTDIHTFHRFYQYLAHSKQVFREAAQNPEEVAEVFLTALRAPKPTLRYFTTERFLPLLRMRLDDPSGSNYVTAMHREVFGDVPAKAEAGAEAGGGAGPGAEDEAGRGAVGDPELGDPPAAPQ
Particulars: dose 50.0 nM, time 24.0 hrs.

In series [2] the target is T1, 17-beta-hydroxysteroid dehydrogenase type 1 (Homo sapiens). The experiment in a line: Inhibition of human 17beta-HSD1 at 50 nM using [3H]-E1 as substrate measured after 13.5 hrs in presence of NADH by LC-MS/MS analysis.
Series [3] addresses T2, 17-beta-hydroxysteroid dehydrogenase type 1 (Homo sapiens, UniProt P14061).
T2 sequence (P14061 whole entry): T1 sequence (whole entry)
The experiment in a line: Inhibition of 17beta-HSD1 in human T47D cells using [3H]E1S as substrate measured after 24 hrs by HPLC analysis. It counts as cell-based.

For series [4], the target named is T1, 17-beta-hydroxysteroid dehydrogenase type 1 (Homo sapiens). The note with it: dose 50.0 nM, time 6.5 hrs.
Description: Inhibition of human placental cytosolic fraction 17beta-HSD1 at 50 nM using [3H]-E1 as substrate in presence of NADH measured after 6.5 hrs by LC-MS/MS method
Series [5] is described as follows: Metabolic stability in human liver S9 fraction assessed as half life at 1 uM in presence of NADPH measured upto 60 min by LC-MS/MS analysis. It counts as ADME, subcellular.
Series [6] is described as follows: Stability in human T47D cells cultured in DMEM medium measured after 24 hrs by LC-MS/MS analysis. The note with it: read-out: Stability. Format: ADME, cell-based.
A short description of series [7]: Metabolic stability in mouse liver S9 fraction assessed as intrinsic clearance at 1 uM in presence of NADPH measured upto 60 min by LC-MS/MS analysis. Format: ADME, subcellular. The note with it: s9, 1 h.
Series [8] is described as follows: Metabolic stability in human liver S9 fraction assessed as intrinsic clearance at 1 uM in presence of NADPH measured upto 60 min by LC-MS/MS analysis. Format: ADME, subcellular. The note with it: s9, 1 h.
Series [9] is described as follows: Metabolic stability in mouse liver S9 fraction assessed as half life at 1 uM in presence of NADPH measured upto 60 min by LC-MS/MS analysis. It counts as ADME, subcellular.
Series [10] concerns the target T3, Steryl-sulfatase (Homo sapiens, UniProt P08842).
T3 sequence (P08842 whole entry): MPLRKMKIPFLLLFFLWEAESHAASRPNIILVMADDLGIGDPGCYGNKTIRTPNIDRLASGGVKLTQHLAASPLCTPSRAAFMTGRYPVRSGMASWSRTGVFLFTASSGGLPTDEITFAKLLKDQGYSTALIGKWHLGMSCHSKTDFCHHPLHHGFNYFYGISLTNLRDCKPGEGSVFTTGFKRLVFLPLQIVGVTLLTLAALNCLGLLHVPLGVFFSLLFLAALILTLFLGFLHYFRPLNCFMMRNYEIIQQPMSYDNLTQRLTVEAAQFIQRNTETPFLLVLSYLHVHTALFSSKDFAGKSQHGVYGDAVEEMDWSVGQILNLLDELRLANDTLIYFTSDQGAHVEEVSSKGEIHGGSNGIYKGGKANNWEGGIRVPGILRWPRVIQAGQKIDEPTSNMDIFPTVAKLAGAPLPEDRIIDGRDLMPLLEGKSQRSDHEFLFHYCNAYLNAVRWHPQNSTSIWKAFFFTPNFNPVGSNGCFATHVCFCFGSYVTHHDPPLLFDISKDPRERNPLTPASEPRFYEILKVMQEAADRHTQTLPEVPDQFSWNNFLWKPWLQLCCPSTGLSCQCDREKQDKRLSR
Description: Inhibition of STS in human T47D cells using [3H]E1S as substrate measured after 24 hrs by HPLC analysis. Format: cell-based.

Series [11] in a line: Stability of compound in phosphate buffer measured after 24 hrs by LC-MS/MS analysis. Format: physicochemical. Particulars: read-out: Stability.
Series [12] addresses T3, Steryl-sulfatase. Description: Irreversible inhibition of STS in human T47D cells using [3H]E1S as substrate measured after 24 hrs by HPLC analysis. It counts as cell-based.
Series [13] can be described thus: Cytotoxicity against human HEK293 cells assessed as cell growth inhibition at 20 uM measured at 48 hrs bt MTT assay relative to control. Format: toxicity, cell-based.

Each structure is given as a SMILES string.

As to `Cc1ccccc1N(C)C(=O)c1ccc(-c2ccc(O)cc2)o1`, the Ratio IC50 in the series listed under Homo sapiens is 51. In addition, the inhibition in series [1] was less than 60%; in series [2], 50%. In series [3], the IC50 came to 0.021 µM.
The compound `Cc1ccccc1N(C)C(=O)c1ccc(-c2ccc(OS(N)(=O)=O)cc2)o1` displayed an inhibition in series [4] of 50%. The half-life at 1 µM came to 47 min in [5] and 25 min in [9]. The remaining at 24 h in series [6] was 94%; in [11], 40%. The intrinsic clearance amounted to 31 µL/min/mg in series [7] and 15 µL/min/mg in [8]. Also, the IC50 amounted to 0.028 µM against Steryl-sulfatase [10] and 0.031 µM against Steryl-sulfatase [12]. In series [13], the inhibition at 48 h, 20 µM was determined as 11.7%.
With `Cc1ccccc1N(C)C(=O)c1ccc(-c2ccc(OS(N)(=O)=O)c(Cl)c2)o1`, the half-life at 1 µM amounted to 48 min in series [5] and 31 min in series [9]. Also, the intrinsic clearance in series [7] stood at 24 µL/min/mg; in [8] it was 15 µL/min/mg. Also, the IC50 on Steryl-sulfatase [10] worked out at 0.025 µM; against Steryl-sulfatase [12], 0.027 µM. The inhibition at 48 h, 20 µM in [13] is 55%.
Turning to `Cc1ccccc1N(C)C(=O)c1ccc(-c2ccc(OS(N)(=O)=O)cc2Cl)o1`, the half-life at 1 µM came to 39 min in [5] and 20 min in [9]. Also, the intrinsic clearance in series [7] worked out at 39 µL/min/mg; in series [8], 18 µL/min/mg. The half-inhibitory concentration (IC50) at Steryl-sulfatase [10] was 0.027 µM; at Steryl-sulfatase [12], 0.029 µM. The inhibition at 48 h, 20 µM in series [13] is 11.7%.

The term inhibition denotes the drop in the measured response relative to a control, in per cent. Usually IC50 stands for the concentration that gives 50% inhibition. A high value points to weaker potency in that assay. In general, half-life refers to how long it takes for the measured level to halve.
